Test results taken from ChEMBL document CHEMBL4251644, “Synthesis and biological characterization of novel rose bengal derivatives with improved amphiphilicity for sono-photodynamic therapy” (Eur J Med Chem, 2018).
pIC50: −log10 of the molar value. The source made the active and inactive calls. No cut-off for these calls is given here.

Key:
[1] = test system: B16-F10; test: Photodynamic anticancer activity in mouse B16F10 cells preincubated for 2 hrs followed by light exposure at 27 J/cm2 for 30 mins and subsequent incubation for 24 hrs by MTT assay; details: B16-F10, light or radiation study
[2] = test system: MCF7; test: Photodynamic anticancer activity in human MCF7 cells preincubated for 2 hrs followed by light exposure at 27 J/cm2 for 30 mins and subsequent incubation for 24 hrs by MTT assay; details: MCF7, light or radiation study
[3] = test system: MCF7; test: Toxicity in human MCF7 cells up to 5 uM incubated in dark for 24 hrs by MTT assay; type: cell-based; details: mcf7, 24 h
[4] = test system: HepG2; test: Photodynamic anticancer activity in human HepG2 cells preincubated for 2 hrs followed by light exposure at 27 J/cm2 for 30 mins and subsequent incubation for 24 hrs by MTT assay; details: HepG2, light or radiation study
[5] = Drug uptake in mouse B16F10 cells assessed as localization in mitochondria at 5 uM after 1.5 hrs by MitoTracker Green staining-based fluorescence assay; type: ADME; details: b16-f10, 1.5 h
[6] = Drug uptake in human HepG2 cells at 5 uM after 2 hrs by confocal microscopy; type: ADME, cell-based; details: hepg2, 2 h
[7] = test system: B16-F10; test: Toxicity in mouse B16F10 cells up to 5 uM incubated in dark for 24 hrs by MTT assay; type: cell-based; details: b16-f10, 24 h
[8] = Octanol-water partition coefficient, log P of the compound after 10 mins; type: physicochemical
[9] = Drug uptake in mouse B16F10 cells assessed as localization in lysosomes at 5 uM after 1.5 hrs by LysoTracker staining-based fluorescence assay; type: ADME, subcellular, Lysosome; details: b16-f10, 1.5 h
[10] = test system: HepG2; test: Toxicity in human HepG2 cells up to 5 uM incubated in dark for 24 hrs by MTT assay; type: cell-based; details: hepg2, 24 h
[11] = test system: HepG2; test: (§1) In vitro sonodynamic anticancer activity against human HepG2 cells at 25 uM preincubated for 2 hrs followed by exposure to ultrasound at 1.0 MHz and 2 W/cm2 intensity for 3 mins and subsequent incubation for 24 hrs by MTT assay; type: functional, cell-based
[12] = test system: HepG2; test: as §1, with “sono-photodynamic” for “sonodynamic”, “0.5” for “25”, “mins followed by immediate irradiation with light at 27 J/cm2 for 30 mins” for “mins”; type: functional, cell-based
[13] = test system: HepG2; test: Induction of intracellular ROS generation in human HepG2 cells at 1 uM preincubated for 2 hrs followed by exposure to ultrasound at 1.0 MHz and 2 W/cm2 intensity for 3 mins followed by immediate irradiation with light at 27 J/cm2 for 30 mins by DCFH-DA staining-based fluorescence analysis; type: functional, cell-based
[14] = test system: HepG2; test: Induction of intracellular ROS generation in human HepG2 cells at 1 uM preincubated for 2 hrs followed by light exposure at 27 J/cm2 for 30 mins by DCFH-DA staining-based fluorescence analysis; type: functional, cell-based
[15] = test system: HepG2; test: Induction of intracellular ROS generation in human HepG2 cells at 1 uM preincubated for 2 hrs followed by exposure to ultrasound at 1.0 MHz and 2 W/cm2 intensity for 3 mins by DCFH-DA staining-based fluorescence analysis; type: functional, cell-based

Which results are given for `O=C([O-])c1c(Cl)c(Cl)c(Cl)c(Cl)c1-c1c2cc(I)c(=O)c(I)c-2oc2c(I)c([O-])c(I)cc12.[Na+].[Na+]` [ROSE BENGAL SODIUM]?
pIC50 [1]: < 5.30; pIC50 [2]: < 5.30; Activity [3]: Non-Toxic; pIC50 [4]: < 5.30; Drug uptake [5]: Active; Drug uptake [6]: Active; Activity [7]: Non-Toxic; logP at 10 min [8]: -0.56; Drug uptake [9]: Active; Activity [10]: Non-Toxic

With `O=C(O)CCCCCCCOC(=O)c1c(Cl)c(Cl)c(Cl)c(Cl)c1-c1c2cc(I)c(=O)c(I)c-2oc2c(I)c(O)c(I)cc12` as the molecule, how does the pIC50 [1] read?
The pIC50 was 5.66.

What about the pIC50 [2] of the same molecule?
The pIC50 was 5.54.

What about the Activity [3] of the same molecule?
Its Activity is “Non-Toxic”.

And the pIC50 [4]?
The pIC50 was 5.67.

And the Drug uptake [5]?
Its Drug uptake is “Active”.

And the Drug uptake [6]?
Its Drug uptake is “Active”.

And the Activity [7]?
The Activity was “Non-Toxic”.

And the logP at 10 min [8]?
Its logP at 10 min is 0.91.

What about the Drug uptake [9] of the same molecule?
Its Drug uptake is “Active”.

What about the Activity [10] of the same molecule?
Its Activity is “Non-Toxic”.

With `COCCOCCOCCOCCOC(=O)CCCCCCCOC(=O)c1c(Cl)c(Cl)c(Cl)c(Cl)c1-c1c2cc(I)c(=O)c(I)c-2oc2c(I)c(O)c(I)cc12` as the molecule, how does the pIC50 [1] read?
The pIC50 was 5.91.

What about the pIC50 [2] of the same molecule?
The pIC50 was 5.90.

What about the Activity [3] of the same molecule?
The Activity was “Non-Toxic”.

What about the Activity [11] of the same molecule?
The Activity was “Active”.

And the pIC50 [4]?
The pIC50 was 6.17.

What about the Drug uptake [5] of the same molecule?
The Drug uptake was “Active”.

And the Drug uptake [6]?
Its Drug uptake is “Active”.

And the Activity [7]?
The Activity was “Non-Toxic”.

And the logP at 10 min [8]?
The logP at 10 min was 0.8.

What about the Drug uptake [9] of the same molecule?
The Drug uptake was “Active”.

And the Activity [10]?
Its Activity is “Non-Toxic”.

Which results are given for `O=C(CCCCCCCOC(=O)c1c(Cl)c(Cl)c(Cl)c(Cl)c1-c1c2cc(I)c(=O)c(I)c-2oc2c(I)c(O)c(I)cc12)Nc1cccc2cccnc12`?
pIC50 [1]: 5.92; pIC50 [2]: 6.07; Activity [3]: Non-Toxic; Activity [11]: inactive; pIC50 [4]: 6.21; Drug uptake [5]: Active; Drug uptake [6]: Active; Activity [7]: Non-Toxic; logP at 10 min [8]: 1.21; Drug uptake [9]: Active; Activity [10]: Non-Toxic

With `O=C(CCCCCCCOC(=O)c1c(Cl)c(Cl)c(Cl)c(Cl)c1-c1c2cc(I)c(=O)c(I)c-2oc2c(I)c(O)c(I)cc12)Nc1cccc2ccccc12` as the molecule, how does the pIC50 [1] read?
The pIC50 was 5.84.

And the pIC50 [2]?
The pIC50 was 5.90.

What about the Activity [3] of the same molecule?
The Activity was “Non-Toxic”.

And the Activity [11]?
The Activity was “inactive”.

And the pIC50 [4]?
The pIC50 was 6.06.

What about the Drug uptake [5] of the same molecule?
The Drug uptake was “Active”.

What about the Drug uptake [6] of the same molecule?
Its Drug uptake is “Active”.

What about the Activity [7] of the same molecule?
Its Activity is “Non-Toxic”.

What about the logP at 10 min [8] of the same molecule?
Its logP at 10 min is 0.94.

And the Drug uptake [9]?
The Drug uptake was “Active”.

What about the Activity [10] of the same molecule?
The Activity was “Non-Toxic”.

Which Activity [12] does the source give for `COCCOCCOC(=O)CCCCCCCOC(=O)c1c(Cl)c(Cl)c(Cl)c(Cl)c1-c1c2cc(I)c(=O)c(I)c-2oc2c(I)c(O)c(I)cc12` here?
Its Activity is “Active”.

What about the pIC50 [1] of the same molecule?
Its pIC50 is 6.11.

What about the pIC50 [2] of the same molecule?
The pIC50 was 6.34.

And the Activity [3]?
Its Activity is “Non-Toxic”.

What about the Activity [11] of the same molecule?
Its Activity is “Active”.

What about the Activity [13] of the same molecule?
Its Activity is “Active”.

And the pIC50 [4]?
The pIC50 was 6.55.

What about the Drug uptake [5] of the same molecule?
The Drug uptake was “Active”.

What about the Drug uptake [6] of the same molecule?
The Drug uptake was “Active”.

What about the Activity [14] of the same molecule?
Its Activity is “Active”.

What about the Activity [7] of the same molecule?
The Activity was “Non-Toxic”.

And the Activity [15]?
The Activity was “inactive”.

And the logP at 10 min [8]?
The logP at 10 min was 0.92.

And the Drug uptake [9]?
The Drug uptake was “Active”.

And the Activity [10]?
Its Activity is “Non-Toxic”.
